# Measured values as given in patent US20050153315A1, “Dimethylarginine dimethylaminohydrolases” (UNIVERSITY COLLEGE LONDON, priority 1999, published 2005).
# How the values were obtained:
# Format in all cases: biochemical
# [1] = target: T1, recombinant human DDAHII (Homo sapiens, UniProt O95865); assay: DDAH assay, [14C]L-NMMA to [14C]citrulline, lysates of E. coli expressing recombinant human DDAHII; conditions: E. coli lysate, 37° C., 60 min, pH 6.5; for effect of competition on metabolism of [14C] L-NMMA by recombinant DDAHII: molar excess of cold competitor
# T1 construct: The entire human DDAHII open reading frame was PCR amplified from oligo dT primed human kidney cDNA; made in house; host or cells: E. coli DH5α, soluble fraction of the lysate, not purified
# T1 sequence (O95865 1-285): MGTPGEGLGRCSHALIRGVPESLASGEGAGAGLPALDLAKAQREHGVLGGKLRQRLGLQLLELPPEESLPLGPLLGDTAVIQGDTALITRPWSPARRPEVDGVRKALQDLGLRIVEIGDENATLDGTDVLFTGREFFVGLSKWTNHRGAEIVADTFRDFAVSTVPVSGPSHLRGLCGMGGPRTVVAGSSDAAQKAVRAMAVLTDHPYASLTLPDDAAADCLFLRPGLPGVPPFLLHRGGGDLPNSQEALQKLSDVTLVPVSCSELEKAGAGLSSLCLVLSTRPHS
# Description: The entire human DDAHII open reading frame was PCR amplified from oligo dT primed human kidney cDNA using oligos HDDAHII.1 and HDDAHII.2. Oligo HDDAH II.1 is complementary to base pairs 2-15 of the human DDAHII cDNA and contains an EcoRI site in frame with the EcoTI site of pPROX.HTa (Life Technologies). HDDAHI.2 is complementary to base pairs 858-840 of the human DDAHII cDNA and contains an artificial XbaI site. PCR produced a single product of ˜850 bp which was digested with EcoRI and Xbai, ligated into EcoRI and XbaI digested pRPROX.HTa and transformed into compotent E.coli DH5α. A positive clone (pPDDAHII) containing an insert of 858 bp was identified and the insert sequenced on both stands. For expression of recombinant human DDAHII, E.coli were grown in liquid culture at 25 ° C. to an OD600 of 0.5-0.6. Expression was then induced by the addition of IPTG to a final concentration of 1 mM and incubation continued for a further two hours. Following induction, cells were collected by centrifugation, weighed and resuspended in ice cold assay buffer (100 mM Na2HPO4 pH 6.5) at 1 g cells/ml. Cells were disrupted by sonication (6×10 secs, with 10 sec. intervals) and centriguged at 50,000 g to separate soluble material from insoluble cell debris.
# Aliquots of E.coli lysates were incubated at 37° C. for 60 min. with […] of 100 mM Na2HPO4 pH 6.5 containing 0.02 μCi [^14C]L-NMMA as described previously (MacAllister et al., 1996, Br. J. Pharmacol. 115, 1001-1004). Following incubation samples were prepared for determination of [^14C] citrulline production by scintillation counting. Reactions were vortexed with 1 ml of 50% (w/v) dowex 50X8-400, centrifuged at 10,000 g for 5 min and then 500 μl of the supernatant was mixed with 5 ml of liquid scintillation fluid and the [^14C] content determined.
# [2] = system: S. coelicolor DDAH (ScDDAH); assay: DDAH assay, cell lysates containing recombinant S. coelicolor DDAH; conditions: 10 mM
# Method: (§1) The effect of 10 mM ADMA and SDMA on recombinant ScDDAH and paDDAH was studied using the assay conditions described in the material and methods section below. Assays were carried out in triplicate on aliquots of cell lysates containing empty vector, scDDAH cDNA or paDDAH cDNA and data was expressed as a mean of the total number of replicates after subtraction of background. The results shown are the mean of three independent experiments.
# (§2) Samples were assayed by incubating 100 μl of cells lysates with an equal volume of assay mix (100 mM Na2HPO4 pH 6.5, containing 0.02 μCi [^14C] L-NMMA and 100 μM cold L-NMMA) at 37° C. for 60 min, as previously reported. The samples were then prepared for scintillation counting to measure the production of [^14C] citrulline by adding 400 μl of 50% (w/v) Dowex 50X-400 to the reactions, vortexing and centrifugation at 13000 g for 2 min. The [^14C] content of 100 μl of supernatant in 1 ml scintillation fluid was then determined.
# (§3) For expression of the recombinant proteins, a positive clone was picked and grown in liquid media supplemented with 100 μg/ml ampicillin. […]
# [3] = target: T2, P. aeruginosa DDAH (PaDDAH) (Pseudomonas aeruginosa, UniProt Q9I4E3); assay: DDAH assay, cell lysates containing recombinant P. aeruginosa DDAH; conditions: 10 mM
# T2 construct: The inserts containing the open reading frames of the bacterial DDAHs were excised from the vector; made in house; host or cells: E. coli DH5α, cell lysate
# T2 sequence (Q9I4E3 whole entry): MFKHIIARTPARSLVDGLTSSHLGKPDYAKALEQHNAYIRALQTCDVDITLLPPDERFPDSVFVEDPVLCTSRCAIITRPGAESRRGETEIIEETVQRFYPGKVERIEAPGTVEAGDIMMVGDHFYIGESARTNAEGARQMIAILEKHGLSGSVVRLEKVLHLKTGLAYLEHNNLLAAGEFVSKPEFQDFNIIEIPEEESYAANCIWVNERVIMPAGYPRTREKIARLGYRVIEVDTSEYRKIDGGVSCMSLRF
# Method: as §1, §2, §3
compound,measurement,setting,value
"CNC(=N)NCC[C@H](N)C(=O)O [4124W, S-2-amino-4(3-methylguanidino)butanoic acid]",effect of DDAH inhibitor on metabolism of [14C] L-NMMA by recombinant DDAHII,[1],inhibited
"CN(C)C(N)=NCCC[C@H](N)C(=O)O [ADMA, N^GN′^G dimethyl-L-arginine]",effect of competition on metabolism of [14C] L-NMMA by recombinant DDAHII,[1],inhibited
same,relative effect on the metabolism of L-NMMA,"[2]; ADMA compared with SDMA, ScDDAH",greater effect than SDMA
same,competition with L-NMMA as substrate (metabolism of [14C] L-NMMA),"[2]; ScDDAH cell lysate, FIG. 7",compete with L-NMMA as substrates
same,relative effect on the metabolism of L-NMMA,"[3]; ADMA compared with SDMA, PaDDAH",greater effect than SDMA
same,competition with L-NMMA as substrate (metabolism of [14C] L-NMMA),"[3]; PaDDAH cell lysate, FIG. 7",compete with L-NMMA as substrates
NC(=O)NCCC[C@H](N)C(=O)O [citrulline],effect of competition on metabolism of [14C] L-NMMA by recombinant DDAHII,[1],inhibited
"CNC(=N)NCCC[C@H](N)C(=O)O [L-NMMA, N^G monomethyl-L-arginine]",effect of competition on metabolism of [14C] L-NMMA by recombinant DDAHII,[1],inhibited
